One data set in a line: in vivo. To be noted: male, NMRI, mouse, ip, 300 mg/kg.
The target in a further data set is T1, ADRA2A (Homo sapiens, UniProt P08913).
T1 sequence (P08913 1-465): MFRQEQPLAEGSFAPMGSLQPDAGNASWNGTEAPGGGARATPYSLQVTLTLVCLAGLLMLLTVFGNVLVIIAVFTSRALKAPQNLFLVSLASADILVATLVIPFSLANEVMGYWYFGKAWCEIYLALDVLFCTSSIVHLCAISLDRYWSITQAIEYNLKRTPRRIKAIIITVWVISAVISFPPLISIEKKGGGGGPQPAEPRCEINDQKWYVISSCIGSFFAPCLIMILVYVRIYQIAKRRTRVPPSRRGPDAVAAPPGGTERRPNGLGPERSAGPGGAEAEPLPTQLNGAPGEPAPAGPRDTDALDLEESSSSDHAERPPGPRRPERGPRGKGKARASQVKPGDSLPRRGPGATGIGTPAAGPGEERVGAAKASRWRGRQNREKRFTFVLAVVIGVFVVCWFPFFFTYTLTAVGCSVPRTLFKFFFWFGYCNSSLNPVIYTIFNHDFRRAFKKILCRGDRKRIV
The data set can be described thus: cAMP ADRA2A Antagonist. Particulars: for Emax: read-out: Max response.

In data set [1] the target is T2, NMDAR (1A/2B) (Homo sapiens, UniProt Q05586+Q13224). The data set can be described thus: Ion Channel NMDAR (1A/2B) Opener. Particulars: for Emax: Ion Channel NMDAR (1A/2B) Opener, read-out: Max response. It is filed as cell-based.
T2 sequence (Q13224 27-1484, other chains not shown): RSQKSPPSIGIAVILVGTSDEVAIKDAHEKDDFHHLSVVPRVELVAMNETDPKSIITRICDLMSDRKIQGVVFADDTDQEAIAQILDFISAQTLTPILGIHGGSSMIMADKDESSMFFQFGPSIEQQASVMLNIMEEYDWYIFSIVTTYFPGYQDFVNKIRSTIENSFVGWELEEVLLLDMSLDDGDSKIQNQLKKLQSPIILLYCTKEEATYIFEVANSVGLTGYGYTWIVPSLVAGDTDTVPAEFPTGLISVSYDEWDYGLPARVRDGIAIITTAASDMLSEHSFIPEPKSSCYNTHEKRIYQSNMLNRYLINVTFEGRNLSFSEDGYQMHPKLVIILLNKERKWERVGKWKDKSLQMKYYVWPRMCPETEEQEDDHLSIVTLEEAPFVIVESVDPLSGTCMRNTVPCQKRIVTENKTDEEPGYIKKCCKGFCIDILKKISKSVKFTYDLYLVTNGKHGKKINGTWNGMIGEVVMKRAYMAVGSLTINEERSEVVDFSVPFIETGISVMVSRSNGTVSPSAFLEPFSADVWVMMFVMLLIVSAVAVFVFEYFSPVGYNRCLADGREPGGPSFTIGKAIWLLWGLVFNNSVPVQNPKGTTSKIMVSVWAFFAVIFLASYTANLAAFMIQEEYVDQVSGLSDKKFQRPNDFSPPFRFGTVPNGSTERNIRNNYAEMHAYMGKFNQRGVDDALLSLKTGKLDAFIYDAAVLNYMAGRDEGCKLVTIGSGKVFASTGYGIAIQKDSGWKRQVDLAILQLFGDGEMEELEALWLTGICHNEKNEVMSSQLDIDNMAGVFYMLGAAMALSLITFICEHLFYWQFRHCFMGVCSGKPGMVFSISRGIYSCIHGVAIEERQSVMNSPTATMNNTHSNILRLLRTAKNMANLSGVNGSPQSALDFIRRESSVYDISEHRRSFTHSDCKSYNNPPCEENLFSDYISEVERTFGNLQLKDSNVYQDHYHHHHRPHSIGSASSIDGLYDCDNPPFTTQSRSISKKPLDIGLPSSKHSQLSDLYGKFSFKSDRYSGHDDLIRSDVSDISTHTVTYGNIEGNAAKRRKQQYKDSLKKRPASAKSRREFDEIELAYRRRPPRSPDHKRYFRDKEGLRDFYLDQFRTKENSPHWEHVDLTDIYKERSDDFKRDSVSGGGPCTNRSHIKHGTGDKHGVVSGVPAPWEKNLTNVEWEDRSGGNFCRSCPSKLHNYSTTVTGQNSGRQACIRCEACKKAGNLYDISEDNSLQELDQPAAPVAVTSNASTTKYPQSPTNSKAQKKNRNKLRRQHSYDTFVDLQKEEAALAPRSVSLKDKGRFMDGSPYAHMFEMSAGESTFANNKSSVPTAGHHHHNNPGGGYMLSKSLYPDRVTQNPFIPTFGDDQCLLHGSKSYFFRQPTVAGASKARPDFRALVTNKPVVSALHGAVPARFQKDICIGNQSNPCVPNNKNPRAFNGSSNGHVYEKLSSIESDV
The target in the next data set is HRH2 (Homo sapiens, UniProt P25021). Briefly: cAMP HRH2 Agonist. Type of data set: cell-based. To be noted: for Emax: read-out: Max response. Here is the method:
cAMP Hunter cell lines were expanded from freezer stocks. […] For Gi agonist determination, cells were incubated with sample in the presence of EC80 forskolin to induce response. For both conditions, media was aspirated from cells and replaced with 15 μL 2:1 HBSS/10 mM HEPES:cAMP XS+ Ab reagent. […] 5 μL of 4× sample was added to cells and incubated at 37° C. or room temperature (RT) for 30 or 60 min. Final assay vehicle concentration was 1%. […] Media was aspirated from cells and replaced with 10 μL 1:1 HBSS/HEPES:cAMP XS+ Ab reagent. […] For Gi coupled GPCRs, EC80 forskolin was included. […] Compound activity was analyzed using CBIS data analysis suite (ChemInnovation, CA).

The subject of data set [2] is EKP-induced epileptiform discharges in zebrafish larvae. The data set can be described thus: Zebrafish EKP seizure model, electrophysiology (non-invasive LFP recordings, PSD analysis). To be noted: 7 dpf larvae; for effect on EKP-induced elevated PSD (in words): 22 h; for efficacy against EKP-induced epileptiform discharges 2 μM / efficacy against EKP-induced epileptiform discharges 10 μM: 22 h incubation, mean, normalized PSD 20-90 Hz. It is filed as in vivo, zebrafish (Danio rerio).
Description: Non-invasive LFP recordings were measured from the midbrain (optic tectum) of 7 dpf zebrafish larvae pre-incubated with VHC only, EKP only, or compound and EKP. […] These steps occurred at 28° C., while further manipulation and electrophysiological recordings occurred at room temperature (±21° C.) and were performed as described before (16, 27). Each recording lasted 600 seconds.
A power spectral density (PSD) analysis of the recordings was performed using MatLab R2019 software (MATrix LABoratory, USA) as described in (26). The PSD estimate of each LFP recording was summed over each 10 Hz frequency band, ranging from 0 to 160 Hz. Next, the PSD estimates were normalized against the VHC control. Data are expressed as mean±SEM PSD per larva and per condition over the 20-90 Hz region. Outliers were identified via the ROUT test (Q=1%).
PSD analysis assumes that the epileptiform activity manifests as a high-power oscillation at certain frequencies (26). Thus, if epileptic activity occurs often during the recording an elevated PSD estimate should be found at the corresponding frequency band(s) (26).

Data set [3] has as its target T2, NMDAR (1A/2B). The data set can be described thus: Ion Channel NMDAR (1A/2B) Blocker. Type of data set: cell-based. To be noted: for Emax: Ion Channel NMDAR (1A/2B) Blocker, read-out: Max response.
The target of a further data set is HRH1 (Homo sapiens, UniProt P35367). Briefly: Calcium Flux HRH1 Agonist. Type of data set: cell-based. To be noted: for Emax: read-out: Max response. Here is the method: (≤0.2% DMSO concentration). Assays were performed in 1× dye loading buffer consisting of 1× Dye (DiscoverX, Calcium No Wash^PLUS kit, Catalog No. 90-0091), 1× Additive A and 2.5 mM Probenecid in HBSS/20 mM HEPES. Probenecid was prepared fresh. Prior to testing, media was aspirated from cells and replaced with 25 μL dye loading buffer. Cells were incubated for 45 min at 37° C. and then 20 min at RT. For agonist determination, 25 μL of 2× compound in HBSS/20 mM HEPES was added using a FLIPR Tetra (MDS). […] 25 μL of 2× sample was added and cells were incubated for 30 min at RT in the dark to equilibrate plate temperature. After incubation, antagonist determination was initiated by addition of 25 μL of 1× compound with 3×EC80 agonist using FLIPR. For both agonist and antagonist formats, activity was measure on a FLIPR Tetra (MDS). Calcium mobilization was monitored for 2 min with a 5 sec baseline read.
Sequence of HRH1 (P35367 whole entry): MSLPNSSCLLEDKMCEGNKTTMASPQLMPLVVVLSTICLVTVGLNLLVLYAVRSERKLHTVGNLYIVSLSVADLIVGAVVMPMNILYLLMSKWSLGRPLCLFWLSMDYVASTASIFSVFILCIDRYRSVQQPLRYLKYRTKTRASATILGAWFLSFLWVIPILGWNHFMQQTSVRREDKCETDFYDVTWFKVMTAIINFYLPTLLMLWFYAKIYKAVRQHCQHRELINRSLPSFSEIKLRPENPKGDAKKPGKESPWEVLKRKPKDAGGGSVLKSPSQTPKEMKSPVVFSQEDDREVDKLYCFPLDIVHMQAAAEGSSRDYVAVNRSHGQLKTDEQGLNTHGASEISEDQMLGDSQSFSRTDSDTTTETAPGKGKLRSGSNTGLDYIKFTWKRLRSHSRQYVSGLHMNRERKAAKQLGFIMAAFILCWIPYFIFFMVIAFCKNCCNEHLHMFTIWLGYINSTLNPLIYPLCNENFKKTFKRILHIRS
FLIPR read—Area under the curve, was calculated for the entire 2 min read.
A general note: A change in cytosolic calcium serves as a functional read-out for many receptors and channels.

Data set [4] is described as follows: Pharmacokinetic analysis in naïve mice. To be noted: single i.p. 300 mg/kg, male NMRI mice.
Description: (§1) After the treatment period, blood samples were drawn from the tail veins, collected in Greiner MiniCollect K2EDTA tubes, and centrifuged twice for 5 min at 15,000 g to obtain plasma samples. Three volumes of acetonitrile were added to one volume of plasma to precipitate out the proteins. The samples were vortexed for 20 s and placed on ice. Immediately after, they were centrifuged at 5,000 g for 10 min and again at 10,000 g for 2 min. The resulting supernatants were transferred to Eppendorf tubes and centrifuged for 2 min at 10,000 g. Finally, the supernatants were collected for analysis by LC-MS/MS to determine the targeted compound concentration. Percentage recovery was determined as follows: known concentrations of the compound were spiked into the blank plasma and acetonitrile was added (3:1 ratio) to precipitate out the proteins. Samples were vortexed for 20 s and placed on ice. The resulting supernatants were isolated via centrifugation as described above. The targeted compounds were identified using LC-MS/MS to detect their characteristic ions. Plasma concentrations at each point were plotted as a function of time.
(§2) Brain samples were collected at the same time points as described for blood samples. Male NMRI mice were overdosed with dolethal via i.p. administration. Mice were perfused with 0.9% saline and brains were collected in Eppendorf tubes. Brains were weighed, whereafter 400 μL of acetonitrile was added to the samples. […] Homogenized samples were centrifuged at 5,000 g for 10 min and again at 10,000 g for 2 min. The resulting supernatants were transferred to Eppendorf tubes and centrifuged for 2 min at 10,000 g. Finally, the supernatants were collected for analysis by LC-MS/MS to determine the targeted compound concentration in the brain tissue.
(§3) The compound concentrations in mouse plasma and brain were determined by LC-MS/MS.
The next data set addresses DRD2S (Homo sapiens, UniProt P14416). Briefly: cAMP DRD2S Antagonist. Particulars: for Emax: read-out: Max response.
The next data set deals with T3, AChE (Homo sapiens, UniProt P22303).
T3 construct: purchased R&D Systems
T3 sequence (P22303 32-614): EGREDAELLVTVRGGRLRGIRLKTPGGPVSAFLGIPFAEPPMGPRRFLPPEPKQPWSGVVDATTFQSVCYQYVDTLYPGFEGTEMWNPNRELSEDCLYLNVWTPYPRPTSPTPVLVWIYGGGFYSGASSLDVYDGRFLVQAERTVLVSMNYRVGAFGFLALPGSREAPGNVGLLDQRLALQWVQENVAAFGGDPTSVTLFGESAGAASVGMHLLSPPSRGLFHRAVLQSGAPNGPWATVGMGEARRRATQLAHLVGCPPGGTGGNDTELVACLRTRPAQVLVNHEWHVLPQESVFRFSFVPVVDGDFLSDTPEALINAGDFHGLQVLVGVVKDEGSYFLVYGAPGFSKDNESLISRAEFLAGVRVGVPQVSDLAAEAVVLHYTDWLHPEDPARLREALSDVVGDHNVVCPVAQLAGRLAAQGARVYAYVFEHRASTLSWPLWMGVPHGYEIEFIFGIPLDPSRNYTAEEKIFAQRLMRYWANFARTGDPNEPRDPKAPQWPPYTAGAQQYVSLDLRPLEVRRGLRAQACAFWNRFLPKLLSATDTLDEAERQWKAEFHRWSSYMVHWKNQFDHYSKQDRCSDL
Briefly: Enzymatic AChE Inhibitor. It is filed as biochemical. To be noted: for IC50: read-out: RC50, result type IC50; for Emax: read-out: Max response. Here is the method: Enzyme preparations were sourced from various vendors-AChE (R&D Systems), COX1 and COX2 (BPS Bioscience), MAOA (Sigma), PDE3A and PDE4D2 (Signal Chem). AChE: enzyme and test compound were pre-incubated for 15 min at RT before substrate addition. Acetylthiocholine and DTNB were added and incubated at RT for 30 min. Signal was detected by measuring absorbance at 405 nm. COX1 and COX2: enzyme stocks were diluted in assay buffer (40 mM Tris-HCl, 1×PBS, 0.5 mM Phenol, 0.01% Tween 20 and 10 nM Hematin) and allowed to equilibrate with compounds at RT for 30 min (binding incubation). Arachidonic acid (1.7 μM) and Ampliflu Red (2.5 μM) were prepared and dispended into a reaction plate. Plates were read immediately on a fluorimeter with the emission detection at 590 nm and excitation wavelength 544 nm. MAOA: enzyme and test compound were pre-incubated for 15 min at 37° C. before substrate addition. The reaction was initiated by addition of kynuramine and incubated at 37° C. for 30 min. The reaction was terminated by addition of NaOH. The amount of 4-hydroquinoline formed was determined through spectrofluorometric readout with the emission detection at 380 nm and excitation wavelength 310 nm. PDE3A and PDE4D2: enzyme and test compound were pre-incubated for 15 min at RT before substrate addition. cAMP substrate (at a concentration equal to EC80) was added and incubated at RT for 30 min. Enzyme reaction was terminated by addition of 9 mM IBMX. Signal was detected using the HitHunter® cAMP detection kit. Microplates were transferred to a PerkinElmer Envision™ instrument and read out as described for each assay. […] For enzyme activity assays, percentage inhibition was calculated using the following equation: […]

Another data set deals with HTR1B (Homo sapiens, UniProt P28222). Briefly: cAMP HTR1B Antagonist. To be noted: for Emax: read-out: Max response.
Sequence of HTR1B (P28222 whole entry): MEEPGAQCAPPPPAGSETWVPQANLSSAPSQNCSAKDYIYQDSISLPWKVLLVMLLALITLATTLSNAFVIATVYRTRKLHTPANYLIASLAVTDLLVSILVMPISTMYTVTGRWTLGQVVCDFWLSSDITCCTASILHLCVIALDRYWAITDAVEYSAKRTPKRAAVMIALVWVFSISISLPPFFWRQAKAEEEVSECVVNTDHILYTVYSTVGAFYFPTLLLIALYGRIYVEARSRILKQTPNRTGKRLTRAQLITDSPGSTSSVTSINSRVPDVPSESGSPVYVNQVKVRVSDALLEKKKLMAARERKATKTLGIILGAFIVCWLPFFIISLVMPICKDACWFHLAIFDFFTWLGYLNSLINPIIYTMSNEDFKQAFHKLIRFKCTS

Experimental findings from patent US20250186408A1, “TREATMENT OF PHARMACORESISTANT EPILEPSY” (Katholieke Universiteit Leuven, priority 2021, published 2025) are described below.

Read-outs that look alike come from different tables or passages of the source.

Sequence of DRD2S (P14416 1-414 isoform P14416-2): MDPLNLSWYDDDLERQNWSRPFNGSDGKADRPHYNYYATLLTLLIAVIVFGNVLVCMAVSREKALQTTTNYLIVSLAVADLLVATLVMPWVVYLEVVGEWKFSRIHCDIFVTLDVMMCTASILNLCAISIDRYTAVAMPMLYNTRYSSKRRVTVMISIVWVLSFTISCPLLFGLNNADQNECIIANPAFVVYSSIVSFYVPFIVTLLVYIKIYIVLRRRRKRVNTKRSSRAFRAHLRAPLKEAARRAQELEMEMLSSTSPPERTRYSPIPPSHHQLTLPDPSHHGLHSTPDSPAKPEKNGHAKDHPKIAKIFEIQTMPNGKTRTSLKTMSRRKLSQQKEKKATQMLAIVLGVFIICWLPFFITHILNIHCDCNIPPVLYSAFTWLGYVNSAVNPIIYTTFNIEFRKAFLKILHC
Sequence of HRH2 (P25021 whole entry): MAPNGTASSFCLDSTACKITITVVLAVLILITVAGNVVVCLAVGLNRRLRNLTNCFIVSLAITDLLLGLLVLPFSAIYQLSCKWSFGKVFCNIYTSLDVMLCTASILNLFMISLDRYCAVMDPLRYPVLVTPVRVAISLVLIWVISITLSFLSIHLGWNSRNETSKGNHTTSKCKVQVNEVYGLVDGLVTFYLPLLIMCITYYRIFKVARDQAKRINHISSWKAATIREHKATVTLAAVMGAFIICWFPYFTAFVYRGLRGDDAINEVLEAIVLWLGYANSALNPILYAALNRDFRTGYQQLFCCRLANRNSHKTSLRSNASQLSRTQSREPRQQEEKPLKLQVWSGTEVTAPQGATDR
Description for ADRA2A: (§4) In vitro pharmacological profiling of compounds was done against 78 functional assays for 47 common off-targets (30) by Eurofins DiscoverX Corporation (Fremont, CA, USA) using their SAFETYscan E/IC50 ELECT service (Cat Ref 87-1003DR, Safety47 Panel Dose Response). […] Compounds were tested in a range of 10 concentrations, following a 3-fold serial dilution, starting from 10 μM.
cAMP Hunter cell lines were expanded from freezer stocks. Prior to testing, cells were seeded in a total volume of 20 μL into white walled 384-well microplates and incubated at 37° C. cAMP modulation was determined using the DiscoverX HitHunter cAMP XS+ assay. For Gs agonist determination, cells were incubated with sample to induce response. For Gi agonist determination, cells were incubated with sample in the presence of EC80 forskolin to induce response. For both conditions, media was aspirated from cells and replaced with 15 μL 2:1 HBSS/10 mM HEPES:cAMP XS+ Ab reagent. Intermediate dilution of sample stocks was performed to generate 4× sample in assay buffer (containing 4×EC80 forskolin in the case of antagonist determination). 5 μL of 4× sample was added to cells and incubated at 37° C. or room temperature (RT) for 30 or 60 min. Final assay vehicle concentration was 1%. For antagonist determination, cells were pre-incubated with sample followed by agonist challenge at the EC80 concentration. Media was aspirated from cells and replaced with 10 μL 1:1 HBSS/HEPES:cAMP XS+ Ab reagent. 5 μL of 4× compound was added to the cells and incubated at 37° C. or RT for 30 min. 5 μL of 4×EC80 agonist was added to the cells and incubated at 37° C. or RT for 30 or 60 min. For Gi coupled GPCRs, EC80 forskolin was included. […] Microplates were read following signal generation with a PerkinElmer Envision™ instrument for chemiluminescent signal detection. Compound activity was analyzed using CBIS data analysis suite (ChemInnovation, CA). For Gs agonist mode assays, percentage activity was calculated using the following equation:
Description for DRD2S: as §4
(§5) cAMP Hunter cell lines were expanded from freezer stocks. Prior to testing, cells were seeded in a total volume of 20 μL into white walled 384-well microplates and incubated at 37° C. cAMP modulation was determined using the DiscoverX HitHunter cAMP XS+ assay. For Gs agonist determination, cells were incubated with sample to induce response. For Gi agonist determination, cells were incubated with sample in the presence of EC80 forskolin to induce response. For both conditions, media was aspirated from cells and replaced with 15 μL 2:1 HBSS/10 mM HEPES:cAMP XS+ Ab reagent. Intermediate dilution of sample stocks was performed to generate 4× sample in assay buffer (containing 4×EC80 forskolin in the case of antagonist determination). 5 μL of 4× sample was added to cells and incubated at 37° C. or room temperature (RT) for 30 or 60 min. Final assay vehicle concentration was 1%. For antagonist determination, cells were pre-incubated with sample followed by agonist challenge at the EC80 concentration. Media was aspirated from cells and replaced with 10 μL 1:1 HBSS/HEPES:cAMP XS+ Ab reagent. 5 μL of 4× compound was added to the cells and incubated at 37° C. or RT for 30 min. 5 μL of 4×EC80 agonist was added to the cells and incubated at 37° C. or RT for 30 or 60 min. For Gi coupled GPCRs, EC80 forskolin was included. […] Microplates were read following signal generation with a PerkinElmer Envision™ instrument for chemiluminescent signal detection. Compound activity was analyzed using CBIS data analysis suite (ChemInnovation, CA).
Description for HTR1B: as §4, §5
Description for in vivo: as §1, §2, §3

By Cmax is commonly meant the highest concentration seen after dosing. Broadly, the IC50 is the point on the concentration scale where inhibition reaches its midpoint. By EC50 is commonly meant the concentration at which the effect is half-maximal. As to `CC(C)(C)c1ccc(C#CC(O)c2ccccc2)cc1` (racemic) [Compound 3.3, rac-3-(4-(tert-butyl)phenyl)-1-phenylprop-2-yn-1-ol], the Cmax worked out at 96000 ng/g in the data set “in vivo” (brain) and 62 µM in “in vivo” (plasma). Besides, the IC50 on ADRA2A was above 10 µM; against NMDAR (1A/2B) [3] it was above 10 µM; at DRD2S, 7.9 µM; on AChE (Enzymatic AChE Inhibitor), above 10 µM; on HTR1B it was 6.4 µM. In addition, the Emax on ADRA2A is 13%; on NMDAR (1A/2B) [1] it was 0%; on HRH2, 2.2%; on NMDAR (1A/2B) [3], 0%; at HRH1 it was 0%; at DRD2S it was 63.5%. The Emax at AChE turned out to be 3.8%; on HTR1B, 66.2%. The EC50 at NMDAR (1A/2B) [1], at HRH2 and at HRH1 was above 10 µM each time. In addition, the “effect on EKP-induced elevated PSD (in words)” value is “remained effective” in data set [2] (2 μM) and “significant decrease” in data set [2] (10 μM). The “efficacy against EKP-induced epileptiform discharges 2 μM” value in [2] (2 μM) is recorded as 54%. The “efficacy against EKP-induced epileptiform discharges 10 μM” value in data set [2] (10 μM) was 82%. Also, the “time at which brain concentration peaked” value in data set [4] was 30 min. For the same molecule, the “time at which plasma concentration peaked” value in data set [4] is given as 30 min.
With `Clc1cccc(C#Cc2n[nH]c3ncccc23)c1` [Compound 10.1, 3-((3-chlorophenyl)ethynyl)-1H-pyrazolo[3,4-b]pyridine], the Cmax in the data set “in vivo” (brain) was 31000 ng/g; in “in vivo” (plasma), 27 µM. The IC50 on ADRA2A, against NMDAR (1A/2B) [3], at DRD2S, at AChE (Enzymatic AChE Inhibitor) and at HTR1B was above 10 µM throughout. Also, the Emax on ADRA2A amounted to 0%; at NMDAR (1A/2B) [1] it was 0%; at HRH2 (cAMP HRH2 Agonist), 0.4%; on NMDAR (1A/2B) [3] it was 0%; at HRH1 (Calcium Flux HRH1 Agonist) it was 0%; at DRD2S, 0%. For the same molecule, the Emax stood at 1.3% at AChE (Enzymatic AChE Inhibitor) and 0% on HTR1B. Also, the EC50 at NMDAR (1A/2B) [1] is above 10 µM; at HRH2 (cAMP HRH2 Agonist, read-out: RC50, result type EC50), above 10 µM; at HRH1 (Calcium Flux HRH1 Agonist, read-out: RC50, result type EC50), above 10 µM. Also, the “effect on EKP-induced elevated PSD (in words)” value in data set [2] (2 μM) is given as “did not”; in [2] (10 μM), “significant decrease”. In addition, the “efficacy against EKP-induced epileptiform discharges 2 μM” value in [2] (2 μM) is given as −30%. Also, the “efficacy against EKP-induced epileptiform discharges 10 μM” value in data set [2] (10 μM) is 77%. In addition, the “time at which brain concentration peaked” value in data set [4] was 150 min. Also, the “time at which plasma concentration peaked” value in data set [4] lay in the range of 60 to 240 min.
